Like-named read-outs stand apart in the source and are kept apart here. Blank lines part the entries; values can stand above or below the compound they belong to.
Legend:
in vivo [1] = conditions: mouse, iv
[2] = system: carbon tetrachloride poisoning; assay: Protective activity in the carbon tetrachloride poisoning; assay type: in vivo, male rats (Sprague-Dawley); conditions: CCl4 0.5 ml/mg sc, 7 days; drugs intramuscularly, (I) 200 and 300 mg/kg, (II) 300 mg/kg
Description: Fifty male rats (Sprague-Dawley, 180-200 grams bodyweight) were used for the investigation, subdivided into 5 groups: one group was given no treatment while the remaining 4 groups were poisoned for 7 consecutive days with CCl4 at the dosage of […] given subcutaneously.

mouse [3] = conditions: oral, 10 animals per dose
bromobenzene poisoning = assay: Protective activity in the bromobenzene poisoning; assay type: in vivo, male rats (Sprague-Dawley); conditions: 300 mg/kg oral, vs investigational compound
Description: Fifty male rats (Sprague-Dawley, 180-200 g bodyweight) were used for the investigation, subdivided into 5 groups, each consisting of 10 animals, given orally the following compounds
(1) 5 percent gum arabic in tap water
(2) 5 percent gum arabic in tap water
(3) 2-(2-thenoylthio)-propionylglycine--200 mg/kg
(4) 2-(2-thenoylthio)-propionylglycine--300 mg/kg
Seven days later, the animals of the groups 2-3-4-[…] were given bromobenzene subcutaneously (150 mg/rat) while the remaining group (control) was given an equivalent volume of saline. Still seven days later, 5 of the animals of each group were given Nembutal (25 mg/kg/intraperitoneally), and the sleeping time was calculated.
The remaining 5 animals of each group were given bromophthalein at the dose of 50 mg intravenously; thirty minutes later, the animals were sacrificed and both the present bromophthalein and SGPT (serum glutamic pyruvic transaminase) were established in the blood.

[4] = Rogers' nonisothermic method: energies of activation, specific velocities, validity periods; assay type: physicochemical
Description: (§1) The stability tests were carried out according to the Rogers' nonisothermic method suitably integrated by the evaluation of physical data, melting point, weight variation, and spectrophotometric assay. For each single compound, the tests were performed on a series of samples, with the weight of 100 milligrams, added for the wet tests with 1 ml of distilled water. […] The sample were kept in a thermostat at increasing temperatures, i.e. from 25° to 80° C. […] The temperature, programmed according to the Rogers' formula, resulted to be 40° C. at the end of the first hour, 50° C. at the end of the second hour, 57° C. at the end of the third hour, 63° C. at the end of the fourth hour, 69° C. at the end of the fifth hour, 73° C. at the end of the sixth hour, 77° C. at the end of the seventh hour and, as already specified, 80° C. at the end of the eighth hour.
The data shown in Table 7 were worked out according to the Rogers' method, drawing up the values of the energies of activation of the decomposition reactions under dry and wet conditions, the specific rate constants as well as the validity period.

[5] = Solubility and organoleptic properties; assay type: physicochemical; conditions: 100 milligrams with 1 ml of distilled water
physchem = assay: physchem
Description: as §1
(§2) In the case of the wet-treated samples, the final weight was only established on the samples No. 10 brought to dryness at 60° C. under vacuum after an 8-hour heating.

[6] = background; cited from earlier work
[7] = Stability test: melting point before and after heating; assay type: physicochemical
Description: as §1
The melting point was established in a capillary tube, under identical conditions, on the samples No. 5 after heating for 8 hours in the previously specified conditions, and on the samples No. 10 after heating and evaporation to dryness as previously specified.

in vivo [8] = conditions: rat, in vivo
Description: (§3) Hundred-and-forty (140) albino rats, Sprague-Dawley strain, bodyweight 120-135 grams, subdivided into groups each consisting of 5 animals, were used for the investigation. […] For each single compound the LD 50 was assessed according to Litchfield and Wilcoxon on the basis of the mortality rate encountered in the 7 days following the treatment.

rat = assay: in vivo; conditions: 10 animals per dose
Description: as §3

[9] = Stability test: physical properties and weight variations on heating; assay type: physicochemical
Description: as §1
Still in Table 5, the sample from 1 to 5 refer, for each of the two compounds, to the dry substance while the samples from 6 to 10 refer to the solution or to the aqueous suspension obtained as above specified.
as §2

mercuric chloride = assay: In vivo protective action against mercurial compounds; design: species or system male mice (Swiss strain); conditions: 300 mg/kg ip, mercuric chloride 20 mg/kg ip, mice, 24 hours
Description: Forty male mice (Swiss strain, 22 grams mean bodyweight) were used for the investigation, subdivided into 4 groups treated as follows:
(1) mercuric chloride, 20 mg/kg/intraperitoneally;
(4) mercuric chloride 20 mg/kg/intraperitoneally+2-thiopropionylglycine 300 mg/kg/intraperitoneally.
Deaths occurred were recorded hourly in the first 5 hours, and thereafter after 24 hours.

in vivo [10] = conditions: mouse, po
mouse [11] = conditions: intravenous, 10 animals per dose
elderly patients = assay type: in vivo, man
Description: The drug was assessed, with respect to its mucolytic action, on thirty elderly patients ([…], maximal 87, mean age 72). […] The improvement was assessed on the basis of the following parameters:
decrease of the daily quantity of sputum;
decrease of the viscosity of the sputum;
increase of the Tiffeneau's index;
improved value of the erythrocyte sedimentation rate.
A group of twenty patients, in the same mean age, was given for control purposes a known drug such as N-acetylcysteine.

[12] = sample 1, dry, 1 hour 30 minutes
[13] = sample 3, dry, 5 hours 15 minutes
[14] = sample 5, dry, 8 hours, listed as 2-thiopropionylglycine
[15] = sample 10, wet, 8 hours, brought to dryness

Structure (SMILES): CC(S)C(=O)NCC(=O)O (centres unmarked) [compound (II), 2-mercaptopropionylglycine, reference compound]
- mortality (in vivo [1]; 500 mg/kg): 0%
- mortality (in vivo [1]; 750 mg/kg): 0%
- mortality (in vivo [1]; 1000 mg/kg): 10%
- liver weight increase consequent to CCl4 [2]: can prevent the liver weight increase
- No. Animals Dead (mouse [3]; 1500 mg/kg): 0
- No. Animals Dead (mouse [3]; 2000 mg/kg): 1
- No. Animals Dead (mouse [3]; 2500 mg/kg (highest dose)): 2
- liver protective effect (bromobenzene poisoning): lower than that induced by the investigational compound, and statistically not significant
- Energy of activation of the decomposition reaction ([4]; dry): 15.66 kcal/mol
- Energy of activation of the decomposition reaction ([4]; wet): 11.54 kcal/mol
- appearance in water [5]: clear solution
- Content (physchem): 101.43%
- E at 232 nm (physchem; as such): 0.329
- remaining at 1.5 h (physchem; dry): 101%
- remaining at 3 h (physchem; dry): 101%
- remaining at 5.25 h (physchem; dry): 99.5%
- remaining at 8 h (physchem; dry): 98.4%
- E at 232 nm (physchem; sample 1, dry): 0.325
- E at 232 nm (physchem; sample 2, dry): 0.324
- E at 232 nm (physchem; sample 3, dry): 0.325
- E at 232 nm (physchem; sample 4, dry): 0.324
- E at 232 nm (physchem; sample 6, wet): 0.333
- E at 232 nm (physchem; sample 7, wet): 0.325
- E at 232 nm (physchem; sample 8, wet): 0.320
- E at 232 nm (physchem; sample 9, wet): 0.300
- stability (known) [6]: low stability
- melting point variation ([7]; after heating): marked decrease of the melting point in the case of the wet sample
- Final m.p. wet conditions (Sample 10) ([7]; after heating 8 hours wet and evaporation to dryness): 86-88 °C
- Final m.p. dry conditions (Sample 5) ([7]; after heating for 8 hours, dry): 92-94 °C
- Initial m.p. ([7]; before heating): 93-95 °C
- LD50 at 168 h (in vivo [8]; im): 1630 mg/kg
- mortality at 168 h (in vivo [8]; im, 1500 mg/kg): 20%
- mortality at 168 h (in vivo [8]; im, 1750 mg/kg): 60%
- mortality at 168 h (in vivo [8]; im, 2000 mg/kg): 100%
- mortality at 168 h (in vivo [8]; po, 1500 mg/kg): 0%
- mortality at 168 h (in vivo [8]; po, 2000 mg/kg): 0%
- mortality at 168 h (in vivo [8]; po, 2500 mg/kg): 20%
- No. Animals Dead (rat; intramuscular, 1500 mg/kg): 2
- No. Animals Dead (rat; intramuscular, 1750 mg/kg): 6
- No. Animals Dead (rat; intramuscular, 2000 mg/kg): 10
- No. Animals Dead (rat; oral, 1500 mg/kg): 0
- No. Animals Dead (rat; oral, 2000 mg/kg): 0
- No. Animals Dead (rat; oral, 2500 mg/kg (highest dose)): 2
- Color [9, 12]: white
- Weight Fin. [9, 12]: 98.3 mg
- Weight Variations [9, 12]: -5.4%
- Color ([9]; sample 2, dry, 3 hours): white
- Weight Fin. ([9]; sample 2, dry, 3 hours, listed as 2-thiopropionylglycine): 93.0 mg
- Color [9, 13]: white
- Weight Fin. [9, 13]: 94.8 mg
- Weight Variations [9, 13]: -5.67%
- Color ([9]; sample 4, dry, 8 hours): white
- Weight Fin. ([9]; sample 4, dry, 8 hours): 95.7 mg
- Weight Variations ([9]; sample 4, dry, 8 hours): -5.53%
- Weight Fin. [9, 14]: 198.9 mg
- Weight Variations [9, 14]: -2.83%
- Color ([9]; sample 6, wet): colorless
- Color ([9]; sample 7, wet): colorless
- Color ([9]; sample 8, wet): colorless
- Color ([9]; sample 9, wet): yellowish
- Weight Fin. [9, 15]: 193.8 mg
- Weight Variations [9, 15]: -3.1%
- deaths (mercuric chloride): 10%
- mortality (in vivo [10]; 1500 mg/kg): 0%
- mortality (in vivo [10]; 2000 mg/kg): 10%
- mortality (in vivo [10]; 2500 mg/kg): 20%
- No. Animals Dead (mouse [11]; 500 mg/kg): 0
- No. Animals Dead (mouse [11]; 750 mg/kg): 0
- No. Animals Dead (mouse [11]; 1000 mg/kg): 1

- fit of cough on aerosol administration (elderly patients; in vivo): frequently happens
Structure (SMILES): CC(=O)N[C@@H](CS)C(=O)O [N-acetylcysteine, reference compound]
- decrease of the sputum, comparison of (I) and N-acetylcysteine (elderly patients; twenty control patients on N-acetylcysteine): overall comparable with those provided by the compound (I)

— patent US4242354A, “2-(2-Thenolythio)-propionylglycine: method for its preparation and pharmaceutical formulations containing said compound” (Mediolanum Farmaceutici S.r.L., priority 1978, dated 1980)
